# Measured values: US10907159B2, “Methods of treating cancer by inhibition of DNA repair proteins using antisense based therapies” (SARISSA INC., priority 2015, dated 2021)
# “Also recorded” adds a separate entry of the source.
# Columns and labels:
# [1] = system: A549b cells; experiment: Proliferation of A549b cells after OLIGO/siRNA transfection (cell counting); format: cell-based, human
# Description: Cultured cell lines were maintained in minimum essential medium a with nucleosides plus 10% fetal bovine serum and penicillin (50 units/mL)/streptomycin (50 mg/L) (growth medium). Cultures were incubated in a humidified atmosphere of 5% CO2 at 37° C. Cultured cell lines were maintained and cytotoxicity assays conducted as described previously (3). Rapidly proliferating cells were utilized for establishing cultures of experimental cells, which were allowed to plate overnight in 25-cm^2 flasks prior to manipulation. An established cell line of non-small-cell lung carcinoma (NSCLC), A549b, which was propagated by serial dilution from a single cell of an A549 parent cell line, was used for the establishment of antisense activity of oligonucleotides. This cell line proliferates with a mean generation time of approximately 20 hours, and is capable of forming tumours in immunodeficient mice with a take rate of greater than 90%. Therefore, this cell line is a good model system that can be used in both in vitro and in vivo experiments to test the activity of OLIGOs.
# OLIGOs were introduced into cells with the use of Lipofectamine 2000 (LFA2K) (Invitrogen, Burlington, Ontario, Canada). OLIGOs were mixed with LFA2K at a ratio of 0.2 μg/ml per 10 nM OLIGO. The mixture was prepared at 11× the final concentration to which cells were exposed, so that 200 μL was added to 2 mL of medium in which cells were plated. As controls, cells were exposed to medium alone (no treatment), LFA2K alone at concentrations equivalent to those used in combination with OLIGOs (in some experiments only the maximum LFA2K concentration was used as a control), or OLIGO having no complementarity with any human mRNA. The OLIGO/LFA2K mixtures were then incubated at room temperature for 20 minutes, according to instructions supplied with the LFA2K, followed by addition of the OLIGOs to the cell medium. The OLIGO/LFA2K mix was then incubated (37° C.) on the cells for 4 hours, after which a second volume of medium was added. Cells were then incubated for 20 hours. Following this incubation, the OLIGO-containing medium was replaced with drug-free medium (i.e. medium without OLIGOs) and the cells were incubated for an additional 4 days. Following the 4-day incubation, the proliferation of the treated cells (fold-increase in cell number) was calculated as a percentage of that of control cells. Cell numbers were enumerated on an electronic particle counter (Beckman Coulter, Mississauga, ON). For the purpose of determining the anti-proliferative effect of antisense OLIGOs, the proliferation of cells treated with antisense OLIGOs was calculated as a percent of that of cells treated with an equivalent concentration of non-complementary control OLIGO (in this case OLIGO 32) mixed with an equivalent amount of LFA2K.
# OLIGO-containing medium was removed and replaced with fresh medium. Cells were incubated for 4 days, at which time cell number was counted. Proliferation was calculated as a percent of non-targeting OLIGO-treated controls.
# Cells were incubated for 4 days, at which time cell number was counted. Proliferation was calculated as a percent of controls.
# [2] = system: A549b cells; experiment: cells; format: cell-based, human; conditions: for enhancement of cisplatin (words): BR1 ASO pretreatment, FIGS. 38, 50
# Description: OLIGOs were introduced into cells with the use of Lipofectamine 2000 (LFA2K) (Invitrogen, Burlington, Ontario, Canada). OLIGOs were mixed with LFA2K at a ratio of 0.2 μg/ml per 10 nM OLIGO. The mixture was prepared at 11× the final concentration to which cells were exposed, so that 200 μL was added to 2 mL of medium in which cells were plated. After incubating at room temperature for 20 minutes, according to manufacturer's instructions, the OLIGOs were added to the cell medium. The OLIGO/LFA2K mix was then incubated (37° C.) on the cells for 4 hours, after which a second volume of medium was added. Cells were then incubated for 20 hours. Following this incubation, the OLIGO-containing medium was replaced with OLIGO-free medium.
# For cells treated with the drug olaparib, for the purposes of determining whether inhibitory activity was enhanced by the OLIGO pretreatment, olaparib was added at this time, in concentrations of from 0.01 μM to 3 μM. At this point, replicate flasks from the OLIGO-treatment were used to enumerate cell content, as this varied among treatments over the initial 24-hour exposure. This was done so that the effect of treatment with olaparib could be ascertained based on the cell population that was present at the time of initiation of exposure to olaparib. Exposure to the olaparib was initiated by addition of 0.2-volume of a preparation of the drug, at 6× final concentration in growth medium, to the fresh drug-free medium on the cells (1 ml of drug into 5 ml of medium). Following a further 4-day incubation, the proliferation of the treated cells (fold-increase in cell number) was calculated as a percentage of that of control cells. Cell numbers were enumerated on an electronic particle counter (Beckman Coulter, Mississauga, ON). As indicated in Example 1, for the purpose of determining the anti-proliferative effect of antisense OLIGOs alone, the proliferation of cells treated with antisense OLIGOs was calculated as a percent of that of cells treated with an equivalent concentration of non-complementary control OLIGO (in this case OLIGO 32). However, for the purpose of determining the anti-proliferative effect of olaparib against antisense or non-complementary (control) OLIGO-treated cells, the proliferation was calculated as a percent of cells treated with the respective OLIGO.
# These experiments were carried out essentially as described in Example 3, with the following changes. The drug tested was cisplatin instead of olaparib, and cisplatin was tested in concentrations ranging from 0.5 μM to 2 μM.
# These experiments were carried out essentially as described in Example 3, with the following changes. The drug tested was melphalan in concentrations ranging from 2 μM to 10 μM.
# These experiments were carried out essentially as described in Example 3, with the following changes. The drug tested was carboplatin at concentrations ranging from 5 μM to 40 μM.
# These experiments were carried out essentially as described in Example 3, with the following changes. The drug tested was oxaliplatin was tested in concentrations ranging from 0.2 μM to 2.5 μM.
# Cisplatin was added to the final concentration indicated, and as described in Example 3. Cells were incubated for 4 days, at which time cell number was counted. Proliferation was calculated as a percent of siRNA-treated, non-cisplatin-treated controls.
substance,measurement,setting,value
"5′-guaucuCTTGACGTuccuua-3′ (GUAUCUCTTGACGTUCCUUA; gapmer, lower-case wings modified, type not given here) [BR1]",anti-proliferative effect as single agent,"[1]; A549/A549b cells, 4 h transfection, counted after 4 d, vs non-targeting control OLIGO",inhibited proliferation on its own; also recorded: greater inhibition as a single agent; also recorded: inhibit proliferation of human non-small cell lung cancer A549 cells in a concentration-dependent manner
same,inhibit proliferation of A549b cells,"[1]; single agent, mixed with 0.2 μg/mL LFA2K, compared with control OLIGO 32, FIG. 1",over 50%
same,enhanced inhibition of proliferation by olaparib (% decrease in the IC50 value),"[2]; A549 cells, ASO pre-incubation, FIGS. 34, 35",up to 95%
same,enhancement of cisplatin (words),[2]; A549 cells,enhances cisplatin
same,enhancement of cisplatin (words),"[2]; A549 cells, listed as BR-1",enhances the antiproliferative activity of cisplatin or melphalan
same,enhanced the anti-proliferative effect of olaparib,"[2]; BR1 pretreatment, at a given concentration of olaparib, FIG. 2",over 40%
same,enhancement of veliparib,"[2]; BR1 vs ODN 32, A549 cells, FIGS. 36, 37",enhances veliparib
